Measured values reported in ChEMBL document CHEMBL1641512, “Lyconadins D and E, and complanadine E, new Lycopodium alkaloids from Lycopodium complanatum” (Bioorg Med Chem, 2011).
The source made the active and inactive calls. The rule behind the calls is not given here.

Assays:
Assay type in all cases: cell-based
[1] = target: Beta-nerve growth factor (Homo sapiens) (UniProt P01138); assay: Induction of neurotrophic factor mRNA expression in human 1321N1 cells at 100 uM by RT-PCR analysis relative to beta-actin mRNA expression
[2] = target: Beta-nerve growth factor (Homo sapiens) (UniProt P01138); assay: Induction of neurotrophic factor mRNA expression in human 1321N1 cells by RT-PCR analysis
[3] = target: Beta-nerve growth factor (Homo sapiens) (UniProt P01138); assay: Induction of neurotrophic factor mRNA expression in human 1321N1 cells at 100 uM by RT-PCR analysis

Chain of Beta-nerve growth factor (Homo sapiens) (P01138 122-241 limits assumed): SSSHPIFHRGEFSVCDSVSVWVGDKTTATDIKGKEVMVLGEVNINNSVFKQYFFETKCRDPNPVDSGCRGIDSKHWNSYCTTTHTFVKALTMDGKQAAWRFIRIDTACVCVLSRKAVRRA

Row | Structure (SMILES) | fold change (FC) [1] | Activity [2] | Activity [3]
1 | C[C@@H]1C[C@H]2C[C@H]3N[C@H](c4cnc5c(c4)[C@@]46C[C@H](C)C[C@@H](C5)[C@H]4CCCN6)CC[C@H]3[C@]3(C1)NCCC[C@H]23 | 2.8 | – | –
2 | C[C@@H]1C[C@H]2CC3=C(CC[C@H](c4cnc5c(c4)[C@@]46C[C@H](C)C[C@@H](C5)[C@H]4CCCN6)N3)[C@]3(C1)NCCC[C@H]23 | 2.4 | – | –
3 | C[C@@H]1C[C@H]2Cc3ncc(-c4ccc5c(n4)C[C@@H]4C[C@@H](C)C[C@]56NCCC[C@H]46)cc3[C@]3(C1)NCCC[C@H]23 | 3.9 | Dose-dependent effect | –
4 | C[C@@H]1CC2=C3NC(=O)CC[C@]34C[C@]3(C1)[C@H]2C[C@@H]4CN3C | – | – | inactive
5 | C[C@@H]1C[C@H]2Cc3ncc(-c4ccc5c(n4)C(=O)[C@@H]4C[C@@H](C)C[C@]56NCCC[C@H]46)cc3[C@]3(C1)NCCC[C@H]23 | 2.3 | – | –
6 | C[C@@H]1CC2=C3NC(=O)CC[C@]34C[C@@]3(C1)NC[C@H]4C[C@@H]23 | – | – | inactive
